Among the data in PubChem BioAssay AID449764 (Southern Research Specialized Biocontainment Screening …, 2010) are IC90 and IC50 values, retold here.

For the assay, the system named is Mycobacterium tuberculosis H37Rv growth inhibition, no glycerol. Briefly: Confirmatory growth inhibition assay, Mycobacterium tuberculosis H37Rv, absence of glycerol (AID 449764).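 As to all read-outs here: growth read after 7 days of incubation.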 As to conditions: for IC90: measured here: IC90 growth inhibition.

The IC90 is the point of the concentration-response curve where the effect stands at 90%. A high value points to weaker potency. For orientation: IC50 means the point on the concentration scale where inhibition reaches its midpoint.

Each structure is given as a SMILES string.

In the case of `COCCOC(=O)c1ccc(NC(=O)COc2ccc([N+](=O)[O-])cc2)cc1`, the 90% effect concentration (IC90) was > 100 µM.
As to `NC(=S)N/N=C/c1ccccc1OCCSc1ccc(Cl)cc1`, the 50% inhibitory concentration (IC50) is 37.8 µM and the 90% effect concentration (IC90) is > 100 µM.
For `COc1c[nH]n(C2CCCCC2)c(=O)c1=O`, the IC50 is 24.1 µM and the 90% effect concentration (IC90) is 27.6 µM.
For `O=C(CCCCCNc1nc(=S)[nH]c2ccccc12)N1CCN(c2ccccn2)CC1`, the IC50 was 90.2 µM and the concentration for an effect of 90% (IC90) was > 100 µM.
The corresponding values for `CCOC(=O)/C(=N/Nc1ccc(OC)cc1)N1CCCc2ccccc21` are 95.3 µM and > 100 µM.
For the molecule `CCOc1ccc(-c2cnc(NCc3cccc4ccccc34)n2CCOC)cc1`, the 50% inhibitory concentration (IC50) was 7.03 µM and the IC90 turned out to be 11 µM.
Consider `c1nc2n(n1)C1=C(CCCC1)C1(CCCCC1)N2`, for which the half-maximal inhibitory concentration (IC50) was 29.8 µM and the concentration for an effect of 90% (IC90) is 44.3 µM.
Turning to `CCCCN(C)CCNC(=O)c1ccc(Cn2c(=S)[nH]c3ccc(Br)cc3c2=O)cc1`, the half-maximal inhibitory concentration (IC50) is 18.9 µM and the concentration for an effect of 90% (IC90) came to 27.9 µM.
On to `COC(=O)[C@@H](NC(=O)O[C@@H]1C(=O)c2ccc(OC)cc2O[C@H]1c1cccc(C(F)(F)F)c1)C(C)C`, for which the concentration for an effect of 90% (IC90) is > 100 µM.
Take `CC(O)CNc1nc2ccccc2n1-c1ncnc2sc3c(c12)CCC3` (centres undefined): the 50% inhibitory concentration (IC50) was 35.2 µM and the IC90 is 42.1 µM.
`CN(CC(=O)Nc1ccc(F)c(F)c1F)c1cnccn1`: the IC50 is 9.88 µM and the IC90 was 13.4 µM.
`CN1/C(=C\C(=O)C[n+]2ccc(C(=O)c3ccccc3)cc2)C(C)(C)c2ccccc21`: the IC50 was 13.3 µM and the IC90 was determined as 21.1 µM.
Turning to `O=C(COC(=O)c1cccs1)c1ccccc1`, the IC50 was 45.8 µM and the IC90 was > 100 µM.
For `O=C1CCc2ccc(OCCCCN3CCN(c4cccc(Cl)c4Cl)CC3)cc2N1`, the IC50 is 33.3 µM and the IC90 was > 100 µM.
Regarding `Cc1cc(C)n(C(=O)c2ccc([N+](=O)[O-])cc2[N+](=O)[O-])n1`, the IC50 is 8.89 µM and the concentration for an effect of 90% (IC90) is 12.3 µM.
For the molecule `CSc1nc2nc3c(c(=O)n2[nH]1)CCCC3`, the IC50 is 23.8 µM and the IC90 was > 100 µM.
Turning to `Oc1ccccc1/C=N/NC(=S)NC1CC2CC1C1C=CCC21` (centres undefined), the IC50 was 11.9 µM and the 90% effect concentration (IC90) came to 18 µM.
Consider `Cn1c(=O)c(C(=O)NNC(=O)c2cccc(Cl)c2)c(O)c2ccccc21`, for which the IC50 was 2.78 µM and the IC90 turned out to be 3.14 µM.
As for `COc1cccc(COC(=O)c2ccc3c(=O)n4c(nc3c2)CCC4)c1OC`, the half-maximal inhibitory concentration (IC50) is 28.2 µM and the concentration for an effect of 90% (IC90) was determined as 59 µM.
On to `CCCCN1C(=O)C2(NNc3ccccc3O2)c2ccccc21` (centres undefined), for which the IC50 is 92.1 µM and the 90% effect concentration (IC90) was > 100 µM.
The corresponding values for `COc1ccc(C2CC(=O)C3=C(C2)NC(C)=C(C#N)C3c2ccc(N(C)C)cc2)cc1` (centres undefined) are 22.2 µM and 35.6 µM.
Turning to `Cc1nc(N2CCC(C)CC2)c2oc3ccccc3c2n1`, the IC50 was 22.6 µM and the concentration for an effect of 90% (IC90) was found to be 30.3 µM.
For the molecule `COc1cc(C)ccc1S(=O)(=O)N1CCN(C23CC4CC(CC(C4)C2)C3)CC1`, the IC50 was 46.5 µM and the IC90 is 51.1 µM.
For `CCOC(=O)c1c(CC(C)C)csc1NC(=O)CCl`, in that order: 2.66 µM and 11.2 µM.
In the case of `CCCCn1nc(C(=O)N[C@@H](CCSC)c2nc3ccccc3[nH]2)c2ccccc2c1=O`, the concentration for half-maximal inhibition (IC50) is 46.9 µM and the IC90 is > 100 µM.
With `CCCn1c(=N)c(C(=O)NCc2ccc3c(c2)OCO3)cc2c(=O)n3cccc(C)c3nc21`, the IC50 was 20.6 µM and the IC90 turned out to be 29.1 µM.
`COc1ccc(CN2CCN(C(c3ccc(F)cc3)c3ccc(F)cc3)CC2)c(OC)c1OC`: the half-maximal inhibitory concentration (IC50) is 22.9 µM and the IC90 worked out at 40.5 µM.
On to `C=C1c2c(Cl)ccc(O)c2C(O)=C2C(=O)[C@]3(O)C(O)=C(C(N)=O)C(=O)[C@@H](N(C)C)[C@@H]3[C@@H](O)C12` (some centres undefined), for which the IC50 is 4.52 µM and the IC90 is 7.01 µM.
